In patent US20230134986A1, “GLUCOSE TRIPTOLIDE CONJUGATES AND USES THEREOF” (The Johns Hopkins University, priority 2020, published 2023):
Where two headings read alike, the source gives them in different places.

Columns and labels:
Format in all cases: cell-based
LNCaP = assay: XTT viability assay, LNCaP; details: Homo sapiens, Prostate Cancer
Text: (§1) Cells and culture conditions. Primary astrocytes (Lonza, Walkersville, Md.; ABM™ Basal Media with AGM™ SingleQuots™ Supplement Pack), fibroblast (ATCC; Fibroblast Basal Medium (ATCC© PCS-201-030™) with Fibroblast Growth Kit-Serum-free (ATCC© PCS-201-040™)), airway epithelial cell (ATCC; Airway Epithelial Cell Basal Medium (ATCC© PCS-300-030™) with Bronchial Epithelial Cell Growth Kit (ATCC© PCS-300-040™)), renal proximal tubule (ATCC; Renal Epithelial Cell Basal Medium (ATCC© PCS-400-030™) with Renal Epithelial Cell Growth Kit (ATCC© PCS-400-040™)), prostate epithelial cell (Lonza; PrEGM™ BulletKit™) and mammary epithelial cell (Lonza; MEBM™ BulletKit™) were kept in a humidified incubator at 37° C. adjusted to 5% CO2. […]
(§2) XTT assay. […] Cell viability was measured using the R&D Systemsm TACS XTT Cell Proliferation/Viability Assay (R&D Systems, Minneapolis, Minn.).

MDA-MB-231 = assay: XTT viability assay, MDA-MB-231; details: Homo sapiens; Breast Cancer, MDA-MB-231, XTT
Text: as §1, §2

MDA-MB-453 = assay: XTT viability assay, MDA-MB-453; details: Homo sapiens; Breast Cancer, MDA-MB-453, XTT
Text: as §1, §2

A253 = assay: XTT viability assay, A253; details: Homo sapiens, Head and Neck Cancer
Text: as §1, §2

Detroit 562 = assay: XTT viability assay, Detroit 562; details: Homo sapiens; Head and Neck Cancer, Detroit 562, XTT
Text: as §1, §2

SK-Mel-3 = assay: XTT viability assay, SK-Mel-3; details: Homo sapiens, SK-MEL3; Melanoma, SK-Mel-3, XTT
Text: as §1, §2

SK-Mel-1 = assay: XTT viability assay, SK-Mel-1; details: Homo sapiens; Melanoma, SK-Mel-1, XTT
Text: as §1, §2

RPMI-7951 = assay: XTT viability assay, RPMI-7951; details: Homo sapiens; Melanoma, RPMI-7951, XTT
Text: as §1, §2

CfPAC-1 = assay: XTT viability assay, CfPAC-1; details: Homo sapiens; Pancreatic Cancer, CfPAC-1, XTT
Text: as §1, §2

BxPC3 = assay: XTT viability assay, BxPC3; details: Homo sapiens, BXPC-3, Pancreatic Cancer
Text: as §1, §2

SW1990 = assay: XTT viability assay, SW1990; details: Homo sapiens, Pancreatic Cancer
Text: as §1, §2

A549 = assay: XTT viability assay, A549; details: Homo sapiens, Lung Cancer
Text: as §1, §2

NCI-H1299 = assay: XTT viability assay, NCI-H1299; details: Homo sapiens, Lung Cancer
Text: as §1, §2

SK-HEP-1 = assay: XTT viability assay, SK-HEP-1; details: Homo sapiens, SK-HEP1; Liver Cancer, SK-HEP-1, XTT
Text: as §1, §2

SNU-387 = assay: XTT viability assay, SNU-387; details: Homo sapiens; Liver Cancer, SNU-387, XTT
Text: as §1, §2

Astrocyte = assay: XTT viability assay, primary astrocytes; details: Homo sapiens, Primary normal cells
Text: as §1, §2

Fibroblast = assay: XTT viability assay, primary fibroblasts; details: Homo sapiens, Primary normal cells
Text: as §1, §2

Airway Epithelial cell = assay: XTT viability assay, airway epithelial cells; details: Homo sapiens, Primary normal cells
Text: as §1, §2

Renal Proximal Tubule = assay: XTT viability assay, renal proximal tubule cells; details: Homo sapiens, Primary normal cells
Text: as §1, §2

Prostate Epithelial cell = assay: XTT viability assay, prostate epithelial cells; details: Homo sapiens, Primary normal cells
Text: as §1, §2

Mammary Epithelial cell = assay: XTT viability assay, mammary epithelial cells; details: Homo sapiens, Primary normal cells
Text: as §1, §2

Cancer cell lines = assay: XTT viability assay, panel of cancer cell lines (means and ranges); details: Homo sapiens
Text: (§3) Cells and culture conditions. Primary astrocytes (Lonza, Walkersville, Md.; ABM™ Basal Media with AGM™ SingleQuots™ Supplement Pack), fibroblast (ATCC; Fibroblast Basal Medium (ATCC© PCS-201-030™) with Fibroblast Growth Kit-Serum-free (ATCC© PCS-201-040™)), airway epithelial cell (ATCC; Airway Epithelial Cell Basal Medium (ATCC© PCS-300-030™) with Bronchial Epithelial Cell Growth Kit (ATCC© PCS-300-040™)), renal proximal tubule (ATCC; Renal Epithelial Cell Basal Medium (ATCC© PCS-400-030™) with Renal Epithelial Cell Growth Kit (ATCC© PCS-400-040™)), prostate epithelial cell (Lonza; PrEGM™ BulletKit™) and mammary epithelial cell (Lonza; MEBM™ BulletKit™) were kept in a humidified incubator at 37° C. adjusted to 5% CO2. Prostate (PC3, LNCaP, DU-145), breast (MDA-MB-231, MDA-MB-453, SK-BR-3), head and neck (A253, Detroit 562, SCC-25), melanoma (SK-Mel-3, SK-Mel-1, RPMI-7951), pancreatic (CfPAC-1, BxPC3, SW1990), lung (A549, NCI-H1299, NCI-H1437) and liver (SNU-475, SK-HEP-1, SNU-387) cancer cell lines were obtained from ATCC and cultured in their respective media (prostate cells: RPMI-1640, MDA-MB-231: RPMI-1640, MDA-MB-453: Leibovitz's L-15, SK-BR-3: McCoy's 5a, A253: McCoy's 5a, Detroit 562: EMEM, SCC-25: DMEM, SK-Mel-3: McCoy's 5a, SK-Mel-1: EMEM, RPMI-7951: EMEM), CfPAC-1: IMDM, BxPC3: RPMI-1640, SW1990: Leibovitz's L-15), A549: F-12K, NCI-H1299: RPMI-1640, NCI-H1437: RPMI-1640, SNU-475: RPMI-1640, SK-HEP-1: EMEM, SNU-387: RPMI-1640. All media were supplemented with 10% (vol/vol) filtered fetal bovine serum (FBS, Invitrogen, Carlsbad, Calif.), 1% penicillin/streptomycin (Invitrogen) and maintained in a humidified incubator at 37° C. with 5% CO2 except for MDA-MB-453 and SW1990 grown at 37° C. without CO2 control. Wild type (ATCC) and C342T XPB knock-in cells (named T7115) of Human Embryonic Kidney 293T (HEK293T), HeLa (ATCC) were cultured in DMEM (GIBCO) with 10% (vol/vol) filtered fetal bovine serum (FBS, Invitrogen, Carlsbad, Calif.), 1% penicillin/streptomycin (Invitrogen).
(§4) XTT assay. Five thousand cells/well were plated on flat-bottom, transparent 96-well plate in a full growth media and incubated at appropriate culture conditions. Twenty four hours after seeding, cells were treated with indicated drugs and incubated for 47 hrs. Cell viability was measured using the R&D Systemsm TACS XTT Cell Proliferation/Viability Assay (R&D Systems, Minneapolis, Minn.).

primary human cells = assay: XTT viability assay, panel of primary non-malignant cells (means and ranges)
Text: as §3, §4

[1] = Cancer cell lines (n = 21), read-out: mean IC50 by cell type
[2] = Less sensitive lines (n = 13), IC50 ≥ 1 μM, read-out: mean IC50 by cell type
[3] = Sensitive lines (n = 8), IC50 < 1 μM, read-out: mean IC50 by cell type
[4] = Non-malignant cells, read-out: mean IC50 by cell type
[5] = cell viability, panel of normal primary cells, read-out: range of IC50 values for primary cells

Compound | IC50 (LNCaP) | IC50 (MDA-MB-231) | IC50 (MDA-MB-453) | IC50 (A253) | IC50 (Detroit 562) | IC50 (SK-Mel-3) | IC50 (SK-Mel-1) | IC50 (RPMI-7951) | IC50 (CfPAC-1) | IC50 (BxPC3) | IC50 (SW1990) | IC50 (A549) | IC50 (NCI-H1299) | IC50 (SK-HEP-1) | IC50 (SNU-387) | IC50 (Astrocyte) | IC50 (Fibroblast) | IC50 (Airway Epithelial cell) | IC50 (Renal Proximal Tubule) | IC50 (Prostate Epithelial cell) | other results
CC(C)[C@]12O[C@H]1[C@@H]1O[C@]13[C@]1(O[C@H]1C[C@H]1C4=C(CC[C@@]13C)C(=O)OC4)[C@@H]2OC(=O)CCC(=O)O[C@@H]1OC(CO)[C@@H](O)C(O)C1O (some centres unmarked) [Compound 10] | 560 ± 90 nM | 280 ± 10 nM | 530 ± 200 nM | 710 ± 470 nM | 1420 ± 830 nM | 420 ± 340 nM | 1290 nM | 2.67 ± 1.34 µM | 510 ± 350 nM | 4.15 ± 0.18 µM | 1.52 ± 0.33 µM | 1700 ± 790 nM | 6.4 ± 2.43 µM | 3.38 ± 0.71 µM | 15.5 ± 9.28 µM | 5.31 ± 4.29 µM | 5.64 ± 1.28 µM | 4.12 ± 1.39 µM | 4.83 ± 1.54 µM | 5.27 ± 2.29 µM | IC50 (Mammary Epithelial cell): 2.56 ± 0.29 µM; IC50 (Cancer cell lines; [1]): 2.42 ± 2 µM; IC50 (Cancer cell lines; [2]): 3.7 ± 2.33 µM; IC50 (Cancer cell lines; [3]): 0.49 µM; IC50 (primary human cells; [4]): 4.16 ± 0.93 µM; IC50 (primary human cells; [5]): 1.37 to 5.6 µM
CC(C)[C@]12O[C@H]1[C@@H]1O[C@]13[C@]1(O[C@H]1C[C@H]1C4=C(CC[C@@]13C)C(=O)OC4)[C@@H]2OC(=O)CCCO[C@@H]1OC(CO)[C@@H](O)C(O)C1O (stereo in doubt) [Compound 1] | 450 ± 330 nM | 260 ± 100 nM | 530 ± 280 nM | 540 ± 400 nM | 1240 ± 610 nM | 440 ± 250 nM | 3440 nM | 5.95 ± 2.45 µM | 470 ± 320 nM | 5 ± 2.83 µM | 6.48 ± 2.79 µM | 2720 ± 1410 nM | 11.5 ± 5.51 µM | 5.9 ± 0.28 µM | 24.4 ± 8.9 µM | 10.9 ± 9.66 µM | 10.6 ± 1.22 µM | 7.13 ± 2.84 µM | 5.94 ± 2.21 µM | 4.72 ± 3.48 µM | IC50 (Mammary Epithelial cell): 4.31 ± 1.03 µM; IC50 (Cancer cell lines; [1]): 3.94 ± 3.26 µM; IC50 (Cancer cell lines; [2]): 6.25 ± 3.68 µM; IC50 (Cancer cell lines; [3]): 0.47 ± 0.06 µM; IC50 (Cancer cell lines; with the exception of SNU-387 and NCI-H1299, read-out: range of IC50 values for cancer cell lines): 0.26 to 6.5 µM; IC50 (primary human cells; [4]): 6.8 ± 1.67 µM; IC50 (primary human cells; [5]): 4 to 10.9 µM
